Assay results from US10226457B2, “Systems and methods for treating an opioid-induced adverse pharmacodynamic response” (Purdue Pharma L.P., priority 2014, dated 2019).

Assays:
male Sprague-Dawley rats [1] = assay: Stomach weight (gastric emptying) after charcoal meal; type: in vivo, rat; details: morphine sulfate 1-10 mg/kg SC, 0.5 hour before charcoal meal; vs vehicle
Protocol: Morphine sulfate (1-10 mg/kg) or 0.9% normal saline (vehicle) was administered SC to the test subjects. 0.5 hour later, a charcoal meal (1 ml/100 grams) was administered PO to the test subjects. One hour after the charcoal meal, the test subjects were euthanized by CO2 and the stomachs were removed and weighed. Data were analyzed using a one-way ANOVA followed by the Dunnett's Multiple Comparisons test where *P<0.05, **P<0.01 and ***P<0.001. […] This effect was dose dependent with a greater magnitude of effect observed with increasing dose.

male Sprague-Dawley rats [2] = assay: Rat hot plate assay; details: for hot plate MED (acute pain): 52° C., cutoff 30 seconds
Protocol: Morphine sulphate (1-10 mg/kg) was dissolved in 0.9% normal saline solution (NSS)(vehicle) and administered SC 1 hour prior to testing against vehicle. Data were analyzed by a two-way ANOVA using a Bonferroni Multiple Comparison Test,***P<0.001.
Morphine sulphate (1-10 mg/kg) was dissolved in 0.9% normal saline solution (NSS)(vehicle) and administered SC 1 hour prior to testing against vehicle. % MPE=Percent Maximum Possible Effect. % MPE=(test latency-baseline)/(cutoff-baseline). Data was analyzed using a Bonferroni Multiple Comparison Test,***P<0.001.
Morphine sulphate (10 mg/kg), the positive control, was dissolved in 0.9% NSS (vehicle). The formulations were administered SC 1 hour prior to testing against vehicle. Data were analyzed by a two-way ANOVA using a Bonferroni multiple comparisons test, where *P<0.05 and ***P<0.001. Data are represented as the means+S.E.M.
Morphine sulphate (10 mg/kg) was dissolved in 0.9% NSS (vehicle). The formulations were administered SC 1 hour prior to testing against vehicle. % MPE=Percent Maximum Possible Effect. % MPE=(test latency-baseline)/(cutoff (30 s)-baseline). Data were analyzed by a two-way ANOVA using Bonferroni Multiple Comparisons test for post-hoc analysis, where *P<0.05 and ***P<0.001. Data are represented as the means+SEM.
The positive control, morphine sulfate in 0.9% NS, was administered SC 1 hour prior to testing. Rats were assessed one day prior (BL) and then 1, 3 and 5 hours post-dosing. Hot Plate was set to 52° C. and cutoff was 30 seconds. Data were analyzed by a two-way ANOVA using a Bonferroni Multiple Comparisons Test, where *P<0.05, ***P<0.001 and ****P<0.0001 versus vehicle. Data are represented as the means+S.E.M from two combined studies.
Oxycodone hydrochloride (0.3-5 mg/kg) was dissolved in 0.9% normal saline solution (NSS)(vehicle) and administered SC 1 hour prior to testing against vehicle. Hot plate was set to 52° C. and cutoff was 30 seconds. Data were analyzed by a two-way ANOVA using a Bonferroni multiple comparisons test, where ****P<0.0001. Data are represented as the means+S.E.M.
Compound was administered SC 1 hour prior to testing. Oxycodone hydrochloride (0.3-5 mg/kg) was dissolved in 0.9% normal saline solution (NSS)(vehicle) and administered SC 1 hour prior to testing against vehicle. Hot plate was set to 52° C. and cutoff was 30 seconds. % MPE=. Percent Maximum Possible Effect. % MPE=(test latency-baseline)/(cutoff (30 s)-baseline). Data were analyzed by a two-way ANOVA using Bonferroni Multiple Comparisons test for post-hoc analysis, ****P<0.000. Data are represented as the means+SEM.
Oxycodone HCl was administered SC 1 hour prior to testing. Thermal latency was assessed the day prior (BL) and then 1, 3 and 5 hours post-oxycodone dosing. The hotplate was set to 52° C. and the cutoff was 30 seconds. Oxycodone was dissolved in 0.9% NS (vehicle). […] Data were analyzed by a two-way ANOVA using the Bonferroni Multiple Comparisons test for post-hoc analysis where, ***P<0.001. Data are represented as the means+SEM.
Oxycodone HCl was administered PO 1 hour prior to testing, while morphine sulfate, the positive control, was administered SC 1 hour prior to testing. Behavior was assessed the day prior (BL) and then 1, 3, 5 and 24 hours post-compound administration. The hot plate was set to 52° C. and the cutoff was 30 seconds. Oxycodone was dissolved in water (vehicle), while morphine sulfate was dissolved in 0.9% NS. Data were analyzed by a two-way ANOVA using a Bonferroni Multiple Comparisons Test, where ****P<0.0001.
Rats were assessed for thermal latency the day prior to dosing, then 1.5, 3 and 5 hours post-morphine administration. Data were analyzed by a two-way ANOVA using the Bonferroni Multiple Comparisons Test, where ****P<0.0001 compared to vehicle+vehicle. Data are represented as the means+S.E.M.

male Sprague-Dawley rats [3] = assay: Rat tail flick assay; details: for tail flick MED (acute pain): intensity 40, cutoff 20 seconds
Protocol: Morphine sulphate (1-10 mg/kg) was dissolved in 0.9% normal saline solution (NSS)(vehicle) and administered SC 1 hour prior to testing against vehicle. Data were analyzed by a two-way ANOVA using a Bonferroni post-hoc test, *P<0.05, ***P<0.001.
Morphine sulphate (1-10 mg/kg) was dissolved in 0.9% normal saline solution (NSS)(vehicle) and administered SC 1 hour prior to testing against vehicle. % MPE=Percent of Maximum Possible Effect. % MPE=(test latency-baseline)/(cutoff(20 s)-baseline)*100. Data were analyzed by a two-way ANOVA using a Bonferroni post-hoc test, *P<0.05, **P<0.01, ***P<0.001.
Morphine sulphate (10 mg/kg) was dissolved in 0.9% NSS (vehicle). The formulations were administered SC 1 hour prior to testing against vehicle. Data were analyzed by a two-way ANOVA using a Bonferroni multiple comparisons test, *P<0.05, ***P<0.001.
Morphine sulphate (10 mg/kg) was dissolved in 0.9% NSS (vehicle). The formulations were administered SC 1 hour prior to testing against vehicle. % MPE=Percent Maximum Possible Effect. % MPE=(test latency-baseline)/(cutoff(20 s)-baseline)*100. Data were analyzed by a two-way ANOVA using a Bonferroni multiple comparisons test, ***P<0.001.
The positive control, morphine sulfate in 0.9% NS was administered SC 1 hour prior to testing. Rats were assessed the day prior (BL) and then 1, 3 and 5 hours post-dosing. Tail Flick was set to 40 intensity and cutoff 20 seconds. Data were analyzed by a two-way ANOVA using a Bonferroni Multiple Comparisons Test, where *P<0.05,***P<0.001 and ****P<0.0001. Data are represented as the means+S.E.M of two combined studies.
Oxycodone hydrochloride (0.3-5 mg/kg) was dissolved in 0.9% normal saline solution (NSS)(vehicle) and administered SC 1 hour prior to testing against vehicle. Data were analyzed by a two-way ANOVA using a Bonferroni multiple comparisons test, ****P<0.001.
Oxycodone hydrochloride (0.3-5 mg/kg) was dissolved in 0.9% normal saline solution (NSS)(vehicle) and administered SC 1 hour prior to testing against vehicle. % MPE=Percent Maximum Possible Effect. % MPE=(test latency-baseline)/(cutoff(20 s)-baseline)*100. Data were analyzed by a two-way ANOVA using a Bonferroni multiple comparisons test, ****P<0.001.
Oxycodone HCl and vehicle were administered SC 1 hour prior to testing. Rats were assessed one day prior (BL) and then 1, 3 and 5 hours post-oxycodone administration. The tail flick was set to an intensity of 40 and the cutoff was 20 seconds. Oxycodone was dissolved in 0.9% (vehicle). […] Data were analyzed by a two-way ANOVA followed by the Bonferroni Multiple Comparisons Test where, *P<0.05 and ****P<0.001.
Oxycodone HCl was administered PO 1 hour prior to testing, while morphine sulfate, the positive control, was administered SC 1 Hour prior to testing. Behavior was assessed the day prior (BL) to dosing, and then 1, 3, 5 and 24 hours post-compound administration. The tail flick was set to an intensity of 40 and 20 seconds was used as the cutoff. Oxycodone was dissolved in water (vehicle), while morphine was dissolved in 0.9% NS. Data were analyzed by a two-way ANOVA using a Bonferroni Multiple Comparisons Test, where *P<0.05, **P<0.01, ***P<0.001 and * * * *P<0.0001.
Rats were assessed for tail flick latency the day prior to dosing, then 1.5, 3 and 5 hours post-morphine administration. Data were analyzed by a two-way ANOVA using the Bonferroni Multiple Comparisons Test, where ****P<0.0001 compared to vehicle+vehicle. Data are represented as the means+S.E.M.
Rats were assessed for thermal latency 1.5, 3 and 5 hours post-morphine administration. % MPE=Percent Maximum Possible Effect. % MPE=(test latency-baseline)/(cutoff(20 s)-baseline)*100. Data were analyzed by a two-way ANOVA using a Bonferroni multiple comparisons test for post-hoc analysis where *P<0.05 and ****P<0.001. Data are represented as the means+SEM.
Rats were tested 1 hour after oxycodone injection.

male Sprague-Dawley rats [4] = assay: Charcoal meal GI transit, opioid alone; details: for GI transit (% of the small intestine travelled by a charcoal meal): vs vehicle
Protocol: 0.5 hour later, a charcoal meal (1 ml/100 grams) was orally administered (PO) to the test subjects.
One hour after the charcoal meal, the test subjects were euthanized by CO2 and the gastrointestinal tract was removed from the stomach to the cecum. The length of the small intestine and the distance (cm) to the leading edge of the charcoal were recorded. Data were analyzed using a one-way ANOVA followed by the Dunnett's Multiple Comparisons test where *P<0.05, **P<0.01 and***P<0.001.
The length of the small intestine and the distance (cm) to the leading edge of the charcoal were recorded. Data were analyzed using a one-way ANOVA followed by Bonferroni's Multiple Comparisons Test where *P<0.05, **P<0.01 and ****P<0.001 vs. vehicle. Data are represented as the means+S.E.M.
One hour after charcoal, all rats were euthanized by CO2 and the GI tract was removed from the stomach to the cecum. The length of the small intestine and the distance (cm) to the leading edge of charcoal was recorded. Data were analyzed using a one-way ANOVA with Bonferonni's Post-Test where ****P<0.0001 vs. vehicle. Data are represented as the means+S.E.M.
One hour later, the rats were euthanized by CO2 and the gastrointestinal tract was removed from the stomach to the cecum. The length of the small intestine and the distance (cm) to the leading edge of charcoal were recorded. Data were analyzed using a one-way ANOVA followed by the Dunnett's Multiple Comparisons test where ***P<0.001. Data are represented as the mean+S.E.M.
Rats were dosed with Oxycodone HCl/Oxy or vehicle (water) PO once daily for 5 days (chronic). Additional groups were dosed only once on day 5 (acute). […] One hour after charcoal, all rats were euthanized by CO2 and the GI tract was removed from the stomach to the cecum. The length of the small intestine and the distance (cm) to the leading edge of charcoal was recorded. Data were analyzed using a one-way ANOVA with Bonferonni's Multiple Comparison Test where * P<0.05, ****P<0.0001 vs. vehicle (chronic), ### vs. oxycodone (acute). Data are represented as the means+S.E.M.

[5] = morphine sulphate 1-10 mg/kg SC 1 hour prior to testing
[6] = oxycodone hydrochloride 0.3-5 mg/kg SC 1 hour prior to testing

| SMILES | stomach weight (gastric emptying) (male Sprague-Dawley rats [1]) | hot plate % MPE (male Sprague-Dawley rats [2]; [5]) | hot plate latency to nocifensive response (male Sprague-Dawley rats [2]; [5]) | tail flick % MPE (male Sprague-Dawley rats [3]; [5]) | tail flick latency to nocifensive response (male Sprague-Dawley rats [3]; [5]) | GI transit (% of the small intestine travelled by a charcoal meal) (male Sprague-Dawley rats [4]; morphine sulfate 1-10 mg/kg SC, 0.5 hour before charcoal meal) | rats found dead (male Sprague-Dawley rats [2]; oxycodone HCl 10 mg/kg SC, at the 3 hr time point) | hot plate MED (acute pain) (male Sprague-Dawley rats [2]; oxycodone HCl PO) | hot plate MED (acute pain) (male Sprague-Dawley rats [2]; oxycodone HCl SC) | hot plate % MPE (male Sprague-Dawley rats [2]; [6]) | hot plate latency to nocifensive response (male Sprague-Dawley rats [2]; [6]) | rats found dead (male Sprague-Dawley rats [3]; oxycodone HCl 10 mg/kg SC dosing group, at the 3 hr time point) | tail flick MED (acute pain) (male Sprague-Dawley rats [3]; oxycodone HCl PO) | tail flick MED (acute pain) (male Sprague-Dawley rats [3]; oxycodone HCl SC) | tail flick % MPE (male Sprague-Dawley rats [3]; [6]) | tail flick latency to nocifensive response (male Sprague-Dawley rats [3]; [6]) | tolerance to inhibition of GI transit on repeated dosing (male Sprague-Dawley rats [4]; oxycodone HCl PO once daily for 5 days (chronic) vs single dose on day 5 (acute)) | GI transit (% of the small intestine travelled by a charcoal meal) (male Sprague-Dawley rats [4]; oxycodone hydrochloride 0.3-5 mg/kg SC, 1 hour before charcoal meal) |
| --- | --- | --- | --- | --- | --- | --- | --- | --- | --- | --- | --- | --- | --- | --- | --- | --- | --- | --- |
| CN1CC[C@]23c4c5ccc(O)c4O[C@H]2[C@@H](O)C=C[C@H]3[C@H]1C5.O=S(=O)(O)O [morphine, morphine sulphate] | increased stomach weight due to delayed gastric emptying | increased % of the maximal possible effect | increased latency to nocifensive response | increased % of the maximal possible effect | increased latency to nocifensive response | decreases gastrointestinal transit |  |  |  |  |  |  |  |  |  |  |  |  |
| COc1ccc2c3c1O[C@H]1C(=O)CC[C@@]4(O)[C@@H](C2)N(C)CC[C@]314.Cl [oxycodone, oxycodone hydrochloride] |  |  |  |  |  |  | 4 out of 10 | 10 mg/kg | 3 mg/kg | increased % of the maximal possible effect | increased latency to nocifensive response | 4 out of 10 | 10 mg/kg | 3 mg/kg | increased % of the maximal possible effect | increased latency to nocifensive response | produces some tolerances to its acute effect on the inhibition of GI transit | decreases gastrointestinal transit |
